Measured values from EP0029617A1, “Use of tertiary heterocyclic amines as synergists in pesticides; derivatives of cycloamines” (priority 1979, dated 1981).
Where two headings read alike, the source gives them in different places.

Legend:
[1] = system: Kornkäfer (sitophilus granarius L); experiment: whole plant or invertebrate; type: in vivo; settings: for % Wirkung Substanz +Ripcord / % Wirkung Substanz +Talcord: 180 min; for mortality at 100 µg/mL / mortality at 50 µg/mL / mortality at 1000 µg/mL: Sitophilus granarius; for mortality at 100 µg/mL: amine 0,1 mg/ml (as for Pyrethroid : Amin 1 : 10); for mortality at 100 µg/mL / mortality at 50 µg/mL: read-out: % Wirkung Substanz allein; for mortality at 50 µg/mL: amine 0,05 mg/ml (as for Pyrethroid : Amin 1 : 5); for mortality at 1000 µg/mL: read-out: Wirksamkeit in % Substanz allein
Procedure, shortened: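 Acetone solutions (2 ml) were dried as films in 15 cm Petri dishes and 25 grain weevils added per dish, with a filter inserted after 1 h. Dead beetles were counted at 3 h at 19–21 °C, and % mortality and the synergistic factor were derived.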

[2] = Acute oral toxicity, single oral application, 14 day LD50; design: species or system SPF-Wistar-Ratten; settings: rat, in vivo, read-out: 14 Tage LD50
Source text: Die erfindungsgemäßen Verbindungen haben nur eine geringe Toxizität. Es wurde die akute, orale Toxizität von Phenyl-N-piperidino-essigsäure-ethylester und 1-N-Undecyl-piperidin bestimmt. Die Tests wurden mit SPF-Wistar-Ratten durchgeführt und die Wirkstoffe einmal oral appliziert.

Drosophila melanogaster = experiment: whole plant or invertebrate; type: in vivo; settings: for Faktor der Wirkungssteigerung bei Dimi-tilan: amine 0,05 % + Dimetilan 0,0001 %
Source text: Die insektiziden Wirkungen von tertiären heterocyclischen Aminen und die synergistischen Eigenschaften mit dem Phosphorsäureester Dimethoat und dem Carbamat Dimetilan, getestet an Drosophila melanogaster.
Die Versuche wurden in Petrischalen von 10 cm Durchmesser ausgeführt. Es wurden zunächst die gerade noch wirksamen Konzentrationen von Dimethoat und Dimetilan bestimmt. Für Dimethoat wurde 0,005 % und für Dimetilan 0,0001 % als günstige Versuchskonzentration ermittelt. Die Aminkomponente wurde mit 1 ml 0,05%iger Lösung + 1 ml Aceton auf insektizide Wirkung getestet. Zur Bestimmung des Synergismus wurde 1 ml 0,05%ige Aminlösung + 1 ml 0,005.%ige Dimethoatlösung, bzw. + 1 ml 0,0001%ige Dimetilanlösung pro Petrischale eingesetzt. Alle Verdünnungen wurden mit Aceton als Lösungsmittel hergestellt.
In den Petrischalen wurden die Lösungen am Boden gut verteilt und 30 min lang antrocknen lassen. In jede Petrischale wurden 20 mit Kohlendioxid betäubte Drosophila eingezählt. Alle 5 min, insgesamt 12 mal, wurde die Anzahl der toten Drosophila ausgezählt und notiert. Die Zahlen wurden aufsummiert und im Verhältnis zur möglichen Zahl an toten Drosophila in % angegeben, wobei der Tot aller Drosophila innerhalb der ersten 5 min 100 % Wirkung entspricht. Jeder Versuch wurde mit 3 Wiederholungen durchgeführt. In Tabelle 1 sind die Mittelwerte der Ergebnisse zusammengestellt.
Zur Ermittlung des synergistischen Faktors wurden die Einzelwerte pro Zeiteinheit durch die für Dimethoat, bzw. Dimetilan für die jeweilige Zeiteinheit gefundenen Werte dividiert. Die Werte für jede Zeiteinheit wurden summiert und durch die Anzahl der Zeiteinheiten dividiert. Die Versuche wurden bei sonst stets gleichbleibenden Bedingungen bei Temperaturen von 20 - 22°C ausgeführt. Die Kontrollversuche zeigten bei Versuchsabschluß stets 0 % Mortalität. Hat die Substanz selbst eine insektizide Wirkung, so wurden die Wirkungsfaktoren für Dimethoat und Dimetilan nach Abzug des Substanzwertes berechnet und in der Tabelle aufgeführt.
Im Beispiel 1 war das Verhältnis von Insektizid und erfindungsgemäßem Amin 1 : 10 in den Gemischen mit Dimethoat. In der Tabelle 2 sind Verhältnisse von 1 : 1, 1 : 2 und 1 : 0,2 bei Versuchen mit Dimethoat aufgeführt, dabei wurde das Dimethoat immer in einer Konzentation von 0,005 % eingesetzt. Die Tabelle zeigt, daß auch bei diesen Verhältnissen noch eine gute synergistische Wirkung vorhanden ist, und es keineswegs einer großen überdosierung des Amins bedarf.

[3] = Pyrethroid : Amin 1 : 5, amine 0,05 mg/ml
[4] = Pyrethroid : Amin 1 : 10, amine 0,1 mg/ml
[5] = amine 1 mg/ml + Ripcord 0,01 mg/ml
[6] = amine 1 mg/ml + Talcord 0,01 mg/ml
[7] = amine 1 mg/ml in Aceton mixed 1 : 1 with Aceton, 2 ml per dish, 25 weevils, dead counted after 3 h
[8] = amine 1 mg/ml mixed 1 : 1 with Ripcord 0,01 mg/ml, 3 h
[9] = amine 1 mg/ml mixed 1 : 1 with Talcord 0,01 mg/ml, 3 h
[10] = 1 ml 0,05%ige amine solution + 1 ml 0,0001%ige Dimetilan solution
[11] = 1 ml 0,05%ige amine solution + 1 ml 0,005 %ige Dimethoat solution (Dimethoat : amine 1 : 10)
[12] = 1 ml 0,05%ige amine solution + 1 ml Aceton per dish, 20 flies, dead counted every 5 min, 12 times, mean values
[13] = calculated after subtracting the amine's own effect
[14] = sitophilus granarius, in vivo, 3 h
[15] = drosophila melanogaster, in vivo
[16] = amine 0,05 % + Dimethoat 0,005 %, calculated after subtracting the amine's own effect
[17] = Drosophila melanogaster, 1 ml 0,05%ige amine solution + 1 ml Aceton per dish, 20 flies, dead counted every 5 min, 12 times, mean values, read-out: Wirksamkeit in % Substanz allein
[18] = Drosophila melanogaster, amine 0,005 %, read-out: Sub-stanz allein
[19] = amine 0,005 % + Dimethoat 0,005 %, Dimethoat : Amin 1 : 1
[20] = amine 0,005 %, Dimethoat : Amin 1 : 1
[21] = Drosophila melanogaster, amine 0,05 %, read-out: Sub-stanz allein
[22] = amine 0,05 % + Dimethoat 0,005 %, Dimethoat : Amin 1 : 10
[23] = amine 0,05 %, Dimethoat : Amin 1 : 10

| Compound | Synergistischer Faktor bei Ripcord [1, 5] | Synergistischer Faktor bei Talcord [1, 6] | Wirksamkeit in % Substanz +Ripcord [1, 8] | Wirksamkeit in % Substanz +Talcord [1, 9] | Wirksamkeit in % Substanz +Dimeti-lan (Drosophila melanogaster; [10]) | Wirksamkeit in % Substanz +Dimethoat (Drosophila melanogaster; [11]) | Faktor der Wirkungssteigerung bei Dimi-tilan (Drosophila melanogaster; [13]) | Faktor der Wirkungssteigerung bei Dime-methoat (Drosophila melanogaster; [16]) | mortality at 1000 µg/mL [1, 7] [%] | mortality at 0.05 % (Drosophila melanogaster; [17]) [%] | also measured |
| --- | --- | --- | --- | --- | --- | --- | --- | --- | --- | --- | --- |
| CCCCCCCCCCCN1CCCCC1 [N-1-Undecyl-piperidin] | – | – | – | – | – | – | – | – | – | – | % Wirkung Substanz +Ripcord [1, 3]: 90,8%; % Wirkung Substanz +Talcord [1, 3]: 53,2%; % Wirkung Substanz +Ripcord [1, 4]: 97,2%; % Wirkung Substanz +Talcord [1, 4]: 60,0%; mortality at 100 µg/mL ([1]; 3 h): 0%; mortality at 50 µg/mL ([1]; 3 h): 0%; LD50 at 336 h ([2]; männliche Ratten): 593 mg/kg; LD50 at 336 h ([2]; weibliche Ratten): 493 mg/kg |
| c1ccc(OCCCN2CCCCC2)cc1 [N-(1-Phenoxi-propyl-(3))-piperidin] | 2,96 | 3,01 | 93,2% | 29,2% | 12,1% | 8,8% | 4,8 | – | – | – | Wirksamkeit in % Substanz allein [1, 7]: 0%; Wirksamkeit in % Substanz allein (Drosophila melanogaster; [12]): 0% |
| CCCCOCCOCCN1CCOCC1 [N-(2'-Butoxi-diethylether-(2))-morpholin] | – | – | – | – | – | – | – | – | – | – | Synergistischer Faktor bei Ripcord ([1]; in vivo): 2,96; Synergistischer Faktor bei Talcord ([1]; in vivo): 8,12; Wirksamkeit in % Substanz +Ripcord [1, 14]: 93,2%; Wirksamkeit in % Substanz +Talcord [1, 14]: 78,8%; Wirksamkeit in % Substanz allein [1, 14]: 0%; Wirksamkeit in % Substanz +Dimethoat (Drosophila melanogaster; [15]): 12,9%; Wirksamkeit in % Substanz +Dimeti-lan (Drosophila melanogaster; [15]): 3,5%; Wirksamkeit in % Substanz allein (Drosophila melanogaster; [15]): 1,7%; Faktor der Wirkungssteigerung bei Dime-methoat (Drosophila melanogaster; in vivo): 1,30 |
| CCCCOCCOCCOCCN1CCCC1 [N-(a-Butyl-triethylen-tri-ether-(w))-pyrrolidin] | 3,05 | 1,24 | 96,0% | 13,2% | 1,7% | 23,3% | – | 2,97 | – | – | Wirksamkeit in % Substanz allein [1, 7]: 0%; Wirksamkeit in % Substanz allein (Drosophila melanogaster; [12]): 0% |
| C(=Cc1ccccc1)CN1CCCCC1 [N-Cinnamyl-piperidin] | 3,08 | 7,01 | 97,2% | 68,0% | 82,5% | 77,1% | 6,48 | 1,25 | 0 | 66.3 | – |
| CC(C)=CCCC(C)CCN1CCCCC1 (stereo not drawn) [N-Citronellyl-piperidin] | 2,46 | 5,53 | 78,8% | 54,8% | – | – | – | – | 1.2 | – | mortality at 0.001 % (Drosophila melanogaster; Drosophila melanogaster, amine 0,001 %, read-out: Sub-stanz allein): 0%; mortality at 0.005 % (Drosophila melanogaster; [18]): 0%; Substanz + Dime-thoat (Drosophila melanogaster; amine 0,001 % + Dimethoat 0,005 %, Dimethoat : Amin 1 : 0,2): 30,4%; Faktor der Wirkungs-steigerung (Drosophila melanogaster; amine 0,001 %, Dimethoat : Amin 1 : 0,2): 3,53; Substanz + Dime-thoat (Drosophila melanogaster; [19]): 32,9%; Faktor der Wirkungs-steigerung (Drosophila melanogaster; [20]): 3,83 |
| CCCCCCCCCCN1CCCCCC1 [N-Decyl-hexamethylenimin] | 1,35 | – | 93,2% | 62,8% | 68,8% | 65,0% | 7,84 | 1,84 | 69.2 | 49.2 | – |
| CCOC(=O)CC(C(=O)OCC)N1CCCCC1 (stereo not drawn) [N-Piperidino-bernstein-säure-di-ethylester] | 3,08 | 2,47 | 97,2% | 24,0% | 2,3% | 38,8% | – | 4,51 | – | – | Wirksamkeit in % Substanz allein [1, 7]: 0%; Wirksamkeit in % Substanz allein (Drosophila melanogaster; [12]): 0% |
| c1cc2c(cc1CN1CCCCC1)OCO2 [N-Piperonyl-piperidin] | – | – | 90,8% | 64,0% | 52,1% | 65,0% | – | 1,55 | 0 | 51.7 | % Wirkung Substanz +Ripcord [1, 3]: 84,0%; % Wirkung Substanz +Talcord [1, 3]: 54,8%; % Wirkung Substanz +Ripcord [1, 4]: 74,8%; % Wirkung Substanz +Talcord [1, 4]: 24,0%; mortality at 100 µg/mL ([1]; 3 h): 0%; mortality at 50 µg/mL ([1]; 3 h): 0%; mortality at 0.05 % (Drosophila melanogaster; [21]): 28.8%; mortality at 0.005 % (Drosophila melanogaster; [18]): 0%; Substanz + Dime-thoat (Drosophila melanogaster; [22]): 60,0%; Faktor der Wirkungs-steigerung (Drosophila melanogaster; [23]): 3,63; Substanz + Dime-thoat (Drosophila melanogaster; [19]): 26,3%; Faktor der Wirkungs-steigerung (Drosophila melanogaster; [20]): 3,06 |
| c1cc2c(cc1CN1CCCC1)OCO2 [N-Piperonyl-pyrrolidin] | 1,87 | 4,29 | 100,0% | 82,8% | 58,3% | 60,0% | 11,80 | 3,63 | 41.2 | 28.8 | – |
| CCOC(=O)C(c1ccccc1)N1CCCCC1 (stereo not drawn) [Phenyl-N-piperidino-essigsäure-ethylester] | – | – | – | – | 2,7% | 22,2% | – | 2,57 | – | 0 | Synergistischer Faktor bei Ripcord ([1]; Pyrethroid : Amin 1 : 10): 3,14; Synergistischer Faktor bei Talcord ([1]; Pyrethroid : Amin 1 : 10): 5,24; % Wirkung Substanz +Ripcord [1, 4]: 98,8%; % Wirkung Substanz +Talcord [1, 4]: 50,8%; mortality at 100 µg/mL ([1]; 3 h): 0%; mortality at 0.01 % (Drosophila melanogaster; Drosophila melanogaster, amine 0,01 %, read-out: Sub-stanz allein): 0%; mortality at 0.05 % (Drosophila melanogaster; [21]): 0%; Substanz + Dime-thoat (Drosophila melanogaster; amine 0,01 % + Dimethoat 0,005 %, Dimethoat : Amin 1 : 2): 59,2%; Faktor der Wirkungs-steigerung (Drosophila melanogaster; amine 0,01 %, Dimethoat : Amin 1 : 2): 6,88; Substanz + Dime-thoat (Drosophila melanogaster; [22]): 22,1%; Faktor der Wirkungs-steigerung (Drosophila melanogaster; [23]): 2,57; LD50 at 336 h ([2]; männliche Ratten): 9750 mg/kg; LD50 at 336 h ([2]; weibliche Ratten): 8170 mg/kg |
